From article PMC10381533, “Inhibitory Effects of the Fungal Pigment Rubiginosin C on Hyphal and Biofilm Formation in Candida albicans and Candida auris” (Journal of Fungi, 2023)
≈ marks a conversion by molar mass, not a printed value.

Key:
C. auris [DSM 21092] = test: MIC assay, C. auris; type: cell-based, Candida auris; conditions: tested 250–2 µg/mL
Experimental: (§1) The MICs of rubiginosin- and rutilin-type azaphilones—in detail, Rub A, C, W, Z, and Rut A and B—were determined as described previously using the selected pathogens C. albicans [DSM 11225, DSM 1665], C. albicans CAI-4 HWP1-lacZ [ZK3379] and C. auris [DSM 21092] (see Table S1 for detailed information). All compounds were tested within the concentration range of 250 µg/mL–2 µg/mL for C. albicans [DSM 11225, DSM 1665], C. albicans CAI-4 HWP1-lacZ [ZK3379], C. auris [DSM 21092]. […]
(§2) All compounds were fully dissolved in
(§3) The assay was conducted as a minimum inhibitory concentration (MIC) assay in 96-well round-bottom microtiter plates using the parameters summarized in table S1 and as already described in [2]. Stocks of the test organisms were generated by growing the organisms overnight in 250 mL (Candida albicans [DSM 11225], [DSM 1665], CAI-4 HWP1-lacZ, Candida auris [DSM 21092]) or 50 mL shaking (the rest organisms) flasks filled with 25 mL of the growth medium at 140 rpm (for media and temperatures see table S1). After incubation overnight, the OD of the suspension was measured and adjusted by diluting with the respective growth medium. OD600 nm was adjusted to 0.01 for bacteria and OD600 nm to 0.1 for fungi and 150 μL of the adjusted suspensions were added to all wells of a 96-well microtiter plate (one test organism per plate). Subsequently, additional 130 μL (1 mg/mL tested compounds) or 142.5 μL (10 mg/mL tested compounds ) of suspensions, plus 20 μL (1 mg/mL tested compounds) respectively 7.5 μL (10 mg/mL tested compounds ) of the test compounds were added to first row. C ontrols (one compound/column) were added as well: MeOH were used as solvent control, while different positive controls (reference drugs ) were used for the according test organisms (see table S1). Starting from row A, 150 μL of the suspension were transferred […]
(§4) to the next row, the contents thoroughly mixed, and 150 μL transferred to the following row. The remaining 150 μL after row H were discarded.
(§5) 66.7 μg/mL in row A to 0.52 μg/mL in row H (1 mg/mL tested compounds) or 250 μg/mL in row A to 2 μg/mL in row H (10 mg/mL tested compounds).
(§6) The 96-well microtiter plates were then incubated overnight on a microplate shaker at 800 rpm at 30 or 37 °C (see table S1) and were visually evaluated the next day. The MIC is defined as the lowest concentration where no growth of the test organism was observed. A lower MIC thus corresponds to a higher antimicrobial activity […]
(§7) Table S1: MIC assay experiment parameters.
(§8) Tested organisms Strain No. Growth Incubation Positive control medium temp. [°C ] (reference)
(§9) KB-3-1 (ACC 158) cervix carcinoma as well as L929 (ACC 2) mouse fibroblasts were cultured under standard cell culture conditions (37 °C, 5% CO2, 95% humidified atmosphere). The cells were maintained in high glucose DMEM containing 10% fetal bovine serum and 100 U/mL penicillin and streptomycin (Gibco, Thermo Fisher Scientific, Waltham, USA). Cell lines were serially passaged after trypsinization, using 0.05% trypsin / 0.02% EDTA solution. The cultures were routinely monitored for potential contamination, and only mycoplasma free cultures were used. The test compounds were investigated for their anti-proliferative effect on cell lines, using the 3-(4,5-dimethylthiazol-2-yl)-2,5-diphenyltetrazolium bromide (MTT) based cell viability assay. […]

[1] = test system: C. albicans CAI-4 HWP1-lacZ [ZK3379]; test: MIC assay, C. albicans CAI-4 HWP1-lacZ; type: cell-based, Candida albicans; conditions: tested 250–2 µg/mL
Experimental: as §1, §2, §3, §4, §5, §6, §7, §8, §9

C. auris biofilm = test: Crystal violet biofilm formation assay, C. auris; type: cell-based, Candida auris; conditions: for effect on formation of C. auris biofilms: CV assay, 24 h treatment
Experimental: The fungal pathogens C. auris [[…]] or C. albicans [DSM 11225] were cultured from stock in 25 mL YPD medium in a 250 mL flask (30 °C, 100 rpm, 18 h). The turbidity of the broth was measured at 280 nm using a spectrophotometer (Nanodrop 2000c, Thermo Fisher Scientific, Waltham, MA, USA) and diluted to match the turbidity of a 0.5 McFarland standard in RPMI 1640 medium (Gibco, New York, NY, USA; Thermo Fisher Scientific), supplemented with […] 3-(N-morpholino)propanesulfonic acid (MOPS, Carl Roth, Karlsruhe, Germany) for C. auris, or 0.05 McFarland standard in RPMI 1640 medium in the case of C. albicans. Subsequently, 150 μL of the fungal dispersion were added into each well of a 96-well microtiter plate (Falcon no. 351172, Thermo Fisher Scientific) and further incubated (37 °C, 150 rpm, 2 h [C. auris] or 90 min [C. albicans]). The supernatant was discarded and the plate was rinsed one time by using a PBS buffer. Afterwards, azaphilones (Rub A, C, W, Z, and Rut A and B) were serially diluted in 150 μL in fresh medium to concentrations of 250–2 μg/mL (Rub C for C. auris: 250–0.02 μg/mL). Methanol (2.5%) was used as a solvent control and both, nystatin (NYS; Thermo Fisher Scientific) and farnesol (FA; Sigma Aldrich, St. Louis, MO, USA) as positive controls (250–2 μg/mL) for C. auris and C. albicans, respectively. Plates were further incubated (37 °C, 150 rpm, 24 h). The supernatant was discarded and biofilms were washed with PBS, stained by adding 150 μL of the crystal violet (CV; Sigma Aldrich) solution (0.1%), and incubated (room temperature, 25 min). Afterwards, the plates were washed twice with PBS buffer. A total of 150 μL ethanol (95%) were applied to dissolve the biofilm-bound CV. The absorbance was measured by a plate reader (Synergy 2, BioTek, Santa Clara, CA, USA) at 570 nm for C. auris or 610 nm for C. albicans. Error bars indicate SD with duplicates in two biological repeats.

C. albicans [DSM 1665] = test system: C. albicans [DSM 1665]; parameters: method as in doi:10.1002/ejoc.202001661; conditions: highest tested concentration 250 µg/mL; cited from earlier work
C. albicans [DSM 11225] = test: MIC assay, C. albicans DSM 11225; type: cell-based, Candida albicans; conditions: tested 250–2 µg/mL
Experimental: as §1, §2, §3, §4, §5, §6, §7, §8, §9

SMILES	MIC (C. auris [DSM 21092])	MIC [1]	inhibition of C. auris biofilm formation compared to solvent control (= 0%) (C. auris biofilm; 2 µg/mL)	inhibition of C. auris biofilm formation compared to solvent control (= 0%) (C. auris biofilm; 3.9 µg/mL)	inhibition of C. auris biofilm formation compared to solvent control (= 0%) (C. auris biofilm; 7.8 µg/mL)	inhibition of C. auris biofilm formation compared to solvent control (= 0%) (C. auris biofilm; 15.6 µg/mL)	inhibition of C. auris biofilm formation compared to solvent control (= 0%) (C. auris biofilm; 31.3 µg/mL)	inhibition of C. auris biofilm formation compared to solvent control (= 0%) (C. auris biofilm; 62.5 µg/mL)	inhibition of C. auris biofilm formation compared to solvent control (= 0%) (C. auris biofilm; 125 µg/mL)	inhibition of C. auris biofilm formation compared to solvent control (= 0%) (C. auris biofilm; 250 µg/mL)	MIC (C. albicans [DSM 1665])	MIC (C. albicans [DSM 11225])	effect on formation of C. auris biofilms (C. auris biofilm)
C[C@@H]1[C@H](O)[C@@H](C)/C=C/C=C/CC/C=C/C=C/C=C/C=C/C(O[C@H]2O[C@H](C)[C@@H](O)[C@H](N)[C@@H]2O)CC2O[C@](O)(CC(O)C(O)CCC(O)CC(O)CC(O)CC(=O)O[C@H]1C)CC(O)C2C(=O)O (stereo partly shown) [Nystatin, nystatin]	31.3 µg/mL (≈ 33.8 µM)	8.3 µg/mL (≈ 8.96 µM)	/ ((/) no activity)	60 ±10%	42 ±15%	47 ±2%	50 ±10%	53 ±8%	45 ±10%	56 ±2%	8.3 µg/mL (≈ 8.96 µM)	8.3 µg/mL (≈ 8.96 µM)	
CC(=O)OC/C=C/C1=CC2=C(CO1)C(=O)[C@@](C)(OC(=O)c1c(C)cc(O)cc1O)C(=O)/C2=C\C=C\C1=CC2=C(CO1)C(=O)[C@@](C)(O)[C@@H](OC(=O)c1c(C)cc(O)cc1O)C2 [Rut A, rutilin A]	no antimicrobial activity	no antimicrobial activity									no antimicrobial activity	no antimicrobial activity	did not affect the formation
CC(=O)OC/C=C/C1=CC2=C(CO1)C(=O)[C@@](C)(OC(=O)c1c(C)cc(O)cc1O)C(=O)/C2=C\C=C\C1=CC2=C(CO1)C(=O)[C@@](C)(OC(=O)c1c(C)cc(O)cc1O)[C@@H](O)C2 [Rut B, rutilin B]	no antimicrobial activity	no antimicrobial activity									no antimicrobial activity	no antimicrobial activity	did not affect the formation
